# Source: patent publication US8802597B2, “Herbicidal pyrimidines” (E I du Pont de Nemours and Company, priority 2003, dated 2014)
# Assays:
# Experiment in all cases: Test C pre/postemergence
# Assay type in all cases: in vivo
# [1] = test system: cocklebur (Xanthium strumarium); details: for Cocklebur plant response rating: scale 0 to 100 (0 no effect, 100 complete control)
# Summary of the method: (§1)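 Injury scored visually 12–14 days after application on 0–100 scale (100 = complete control), relative to controls. Compounds, formulated with surfactant in non-phytotoxic solvent, applied to soil at planting (pre) or to 1- to 4-leaf plants 2–18 cm tall (post) in greenhouse.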
# [2] = test system: Surinam grass (Brachiaria decumbens); details: for Surinam Grass plant response rating: scale 0 to 100 (0 no effect, 100 complete control)
# Summary of the method: as §1
# corn (Zea mays) = details: for Corn plant response rating: scale 0 to 100 (0 no effect, 100 complete control)
# Summary of the method: as §1
# [3] = test system: common (oilseed) sunflower (Helianthus annuus); details: Preemergence
# Summary of the method: as §1
# [4] = test system: pigweed (Amaranthus retroflexus); details: for Pigweed plant response rating: scale 0 to 100 (0 no effect, 100 complete control)
# Summary of the method: as §1
# [5] = test system: yellow nutsedge (Cyperus esculentus); details: for Nutsedge, Yellow plant response rating: scale 0 to 100 (0 no effect, 100 complete control)
# Summary of the method: as §1
# [6] = test system: velvetleaf (Abutilon theophrasti); details: for Velvetleaf plant response rating: scale 0 to 100 (0 no effect, 100 complete control)
# Summary of the method: as §1
# [7] = test system: common ragweed (Ambrosia elatior); details: for Ragweed plant response rating: scale 0 to 100 (0 no effect, 100 complete control)
# Summary of the method: as §1
# [8] = test system: crabgrass (Digitaria sanguinalis); details: for Crabgrass plant response rating: scale 0 to 100 (0 no effect, 100 complete control)
# Summary of the method: as §1
# [9] = test system: goosegrass (Eleusine indica); details: for Goosegrass plant response rating: scale 0 to 100 (0 no effect, 100 complete control)
# Summary of the method: as §1
# kochia (Kochia scoparia) = details: for Kochia plant response rating: scale 0 to 100 (0 no effect, 100 complete control)
# Summary of the method: as §1
# [10] = test system: lambsquarters (Chenopodium album); details: for Lambsquarters plant response rating: scale 0 to 100 (0 no effect, 100 complete control)
# Summary of the method: as §1
# [11] = Postemergence, 250 g ai/ha, scale 0 to 100
# [12] = Postemergence, 500 g ai/ha, scale 0 to 100
# [13] = Preemergence, 62 g ai/ha, scale 0 to 100, 0 no effect, 100 complete control
# [14] = Preemergence, 125 g ai/ha, scale 0 to 100
# [15] = Preemergence, 250 g ai/ha, scale 0 to 100
# [16] = Preemergence, 500 g ai/ha, scale 0 to 100
# [17] = 62 g ai/ha, scale 0 to 100, 0 no effect, 100 complete control
# [18] = Preemergence, 31 g ai/ha, scale 0 to 100, 0 no effect, 100 complete control
compound,measurement,setting,value
CN(C)N=Cc1nc(C2CC2)nc(N)c1Br [Compound 50],Cocklebur plant response rating,"[1]; Postemergence, 62 g ai/ha",40
same,Cocklebur plant response rating,"[1]; Postemergence, 125 g ai/ha",40
same,"Plant response rating, Cocklebur",[1]; [11],65
same,"Plant response rating, Cocklebur",[1]; [12],90
same,"Plant response rating, Cocklebur",[1]; [13],70
same,"Plant response rating, Cocklebur",[1]; [14],85
same,"Plant response rating, Cocklebur",[1]; [15],95
same,"Plant response rating, Cocklebur",[1]; [16],95
same,Surinam Grass plant response rating,"[2]; Postemergence, 62 g ai/ha",0
same,Surinam Grass plant response rating,"[2]; Postemergence, 125 g ai/ha",0
same,"Plant response rating, Surinam Grass",[2]; [11],0
same,"Plant response rating, Surinam Grass",[2]; [12],60
same,"Plant response rating, Surinam Grass",[2]; [13],0
same,"Plant response rating, Surinam Grass",[2]; [14],15
same,"Plant response rating, Surinam Grass",[2]; [15],65
same,"Plant response rating, Surinam Grass",[2]; [16],85
same,Corn plant response rating,"corn (Zea mays); Postemergence, 62 g ai/ha",0
same,Corn plant response rating,"corn (Zea mays); Postemergence, 125 g ai/ha",0
same,"Plant response rating, Corn",corn (Zea mays); [11],60
same,"Plant response rating, Corn",corn (Zea mays); [12],65
same,"Plant response rating, Corn",corn (Zea mays); [13],10
same,"Plant response rating, Corn",corn (Zea mays); [14],10
same,"Plant response rating, Corn",corn (Zea mays); [15],20
same,"Plant response rating, Corn",corn (Zea mays); [16],45
same,"Plant response rating, Sunflower",[3]; [17],15
same,"Plant response rating, Sunflower","[3]; 125 g ai/ha, scale 0 to 100",55
same,"Plant response rating, Sunflower","[3]; 250 g ai/ha, scale 0 to 100",95
same,"Plant response rating, Sunflower","[3]; 500 g ai/ha, scale 0 to 100",100
same,Pigweed plant response rating,"[4]; Postemergence, 62 g ai/ha",75
same,Pigweed plant response rating,"[4]; Postemergence, 125 g ai/ha",80
same,"Plant response rating, Pigweed",[4]; [11],85
same,"Plant response rating, Pigweed",[4]; [12],95
same,"Plant response rating, Pigweed",[4]; [13],75
same,"Plant response rating, Pigweed",[4]; [14],90
same,"Plant response rating, Pigweed",[4]; [15],95
same,"Plant response rating, Pigweed",[4]; [16],100
same,"Nutsedge, Yellow plant response rating","[5]; Postemergence, 62 g ai/ha",0
same,"Nutsedge, Yellow plant response rating","[5]; Postemergence, 125 g ai/ha",0
same,"Plant response rating, Nutsedge, Yellow",[5]; [11],0
same,"Plant response rating, Nutsedge, Yellow",[5]; [12],0
same,"Plant response rating, Nutsedge, Yellow",[5]; [13],0
same,"Plant response rating, Nutsedge, Yellow",[5]; [14],0
same,"Plant response rating, Nutsedge, Yellow",[5]; [15],0
same,"Plant response rating, Nutsedge, Yellow",[5]; [16],0
same,Velvetleaf plant response rating,"[6]; Postemergence, 62 g ai/ha",50
same,Velvetleaf plant response rating,"[6]; Postemergence, 125 g ai/ha",55
same,"Plant response rating, Velvetleaf",[6]; [11],70
same,"Plant response rating, Velvetleaf",[6]; [12],80
same,"Plant response rating, Velvetleaf",[6]; [13],65
same,"Plant response rating, Velvetleaf",[6]; [14],75
same,"Plant response rating, Velvetleaf",[6]; [15],85
same,"Plant response rating, Velvetleaf",[6]; [16],100
same,Ragweed plant response rating,"[7]; Postemergence, 62 g ai/ha",20
same,Ragweed plant response rating,"[7]; Postemergence, 125 g ai/ha",45
same,"Plant response rating, Ragweed",[7]; [11],45
same,"Plant response rating, Ragweed",[7]; [12],80
same,"Plant response rating, Ragweed",[7]; [13],70
same,"Plant response rating, Ragweed",[7]; [14],85
same,"Plant response rating, Ragweed",[7]; [15],95
same,"Plant response rating, Ragweed",[7]; [16],100
same,Crabgrass plant response rating,"[8]; Postemergence, 62 g ai/ha",60
same,Crabgrass plant response rating,"[8]; Postemergence, 125 g ai/ha",60
same,"Plant response rating, Crabgrass",[8]; [11],75
same,"Plant response rating, Crabgrass",[8]; [12],80
same,"Plant response rating, Crabgrass",[8]; [13],90
same,"Plant response rating, Crabgrass",[8]; [14],90
same,"Plant response rating, Crabgrass",[8]; [15],95
same,"Plant response rating, Crabgrass",[8]; [16],95
same,Goosegrass plant response rating,"[9]; Postemergence, 62 g ai/ha",0
same,Goosegrass plant response rating,"[9]; Postemergence, 125 g ai/ha",0
same,"Plant response rating, Goosegrass",[9]; [11],0
same,"Plant response rating, Goosegrass",[9]; [12],0
same,"Plant response rating, Goosegrass",[9]; [13],0
same,"Plant response rating, Goosegrass",[9]; [14],0
same,"Plant response rating, Goosegrass",[9]; [15],0
same,"Plant response rating, Goosegrass",[9]; [16],0
same,Kochia plant response rating,"kochia (Kochia scoparia); Postemergence, 62 g ai/ha",20
same,Kochia plant response rating,"kochia (Kochia scoparia); Postemergence, 125 g ai/ha",55
same,"Plant response rating, Kochia",kochia (Kochia scoparia); [11],65
same,"Plant response rating, Kochia",kochia (Kochia scoparia); [12],95
same,"Plant response rating, Kochia",kochia (Kochia scoparia); [14],0
same,"Plant response rating, Kochia",kochia (Kochia scoparia); [15],20
same,"Plant response rating, Kochia",kochia (Kochia scoparia); [16],90
same,Lambsquarters plant response rating,"[10]; Postemergence, 62 g ai/ha",70
same,Lambsquarters plant response rating,"[10]; Postemergence, 125 g ai/ha",75
same,"Plant response rating, Lambsquarters",[10]; [11],80
same,"Plant response rating, Lambsquarters",[10]; [12],85
same,"Plant response rating, Lambsquarters",[10]; [13],95
same,"Plant response rating, Lambsquarters",[10]; [14],100
same,"Plant response rating, Lambsquarters",[10]; [15],100
same,"Plant response rating, Lambsquarters",[10]; [16],100
COC(=O)Cc1nc(C2CC2)nc(N)c1Br [Compound 13],"Plant response rating, Cocklebur",[1]; [18],40
same,"Plant response rating, Cocklebur",[1]; [13],60
same,"Plant response rating, Cocklebur",[1]; [14],90
same,"Plant response rating, Cocklebur",[1]; [15],95
same,"Plant response rating, Surinam Grass",[2]; [18],0
same,"Plant response rating, Surinam Grass",[2]; [13],0
same,"Plant response rating, Surinam Grass",[2]; [14],0
same,"Plant response rating, Surinam Grass",[2]; [15],10
same,"Plant response rating, Corn",corn (Zea mays); [18],0
same,"Plant response rating, Corn",corn (Zea mays); [13],5
same,"Plant response rating, Corn",corn (Zea mays); [14],10
same,"Plant response rating, Corn",corn (Zea mays); [15],30
same,"Plant response rating, Sunflower","[3]; 31 g ai/ha, scale 0 to 100, 0 no effect, 100 complete control",5
same,"Plant response rating, Sunflower",[3]; [17],50
same,"Plant response rating, Sunflower","[3]; 125 g ai/ha, scale 0 to 100",60
same,"Plant response rating, Sunflower","[3]; 250 g ai/ha, scale 0 to 100",90
same,"Plant response rating, Pigweed",[4]; [18],50
same,"Plant response rating, Pigweed",[4]; [13],60
same,"Plant response rating, Pigweed",[4]; [14],85
same,"Plant response rating, Pigweed",[4]; [15],90
same,"Plant response rating, Nutsedge, Yellow",[5]; [18],0
same,"Plant response rating, Nutsedge, Yellow",[5]; [13],0
same,"Plant response rating, Nutsedge, Yellow",[5]; [14],0
same,"Plant response rating, Nutsedge, Yellow",[5]; [15],0
same,"Plant response rating, Velvetleaf",[6]; [18],60
same,"Plant response rating, Velvetleaf",[6]; [13],60
same,"Plant response rating, Velvetleaf",[6]; [14],80
same,"Plant response rating, Velvetleaf",[6]; [15],90
same,"Plant response rating, Ragweed",[7]; [18],45
same,"Plant response rating, Ragweed",[7]; [13],60
same,"Plant response rating, Ragweed",[7]; [14],70
same,"Plant response rating, Ragweed",[7]; [15],85
same,"Plant response rating, Crabgrass",[8]; [18],0
same,"Plant response rating, Crabgrass",[8]; [13],0
same,"Plant response rating, Crabgrass",[8]; [14],0
same,"Plant response rating, Crabgrass",[8]; [15],0
same,"Plant response rating, Goosegrass",[9]; [18],0
same,"Plant response rating, Goosegrass",[9]; [13],0
same,"Plant response rating, Goosegrass",[9]; [14],0
same,"Plant response rating, Goosegrass",[9]; [15],0
same,"Plant response rating, Kochia",kochia (Kochia scoparia); [18],45
same,"Plant response rating, Kochia",kochia (Kochia scoparia); [13],60
same,"Plant response rating, Kochia",kochia (Kochia scoparia); [14],80
same,"Plant response rating, Kochia",kochia (Kochia scoparia); [15],85
same,"Plant response rating, Lambsquarters",[10]; [18],50
same,"Plant response rating, Lambsquarters",[10]; [13],85
same,"Plant response rating, Lambsquarters",[10]; [14],90
same,"Plant response rating, Lambsquarters",[10]; [15],90
